Results on 33 molecules are retold here after ChEMBL document CHEMBL1143961, “Synthesis and antiplatelet activity of ethyl 4-(1-benzyl-1H-indazol-3-yl)benzoate (YD-3) derivatives” (Bioorg Med Chem, 2008).

Each structure is given as a SMILES string. A value given as a limit tells only on which side of the number the result lay.

Assay [1] relates to Platelet. The assay is described as follows: Inhibition of U46619-induced human platelet aggregation. Format: functional, cell-based.
Assay [2] has as its system Platelet. The assay can be described thus: Inhibition of SFLLRN-induced human platelet aggregation. It counts as functional, cell-based.
Assay [3] deals with Platelet. The assay is described as follows: Inhibition of collagen-induced human platelet aggregation. Format: functional, cell-based.
Assay [4] relates to Platelet. The assay is described as follows: Inhibition of GYPGKF-induced human platelet aggregation. It counts as functional, cell-based.
Assay [5] relates to Platelet. The assay can be described thus: Inhibition of thrombin-induced human platelet aggregation. Format: functional, cell-based.
Assay [6] deals with T1, Proteinase-activated receptor 4 (Homo sapiens) (UniProt Q96RI0).
T1 sequence (whole entry): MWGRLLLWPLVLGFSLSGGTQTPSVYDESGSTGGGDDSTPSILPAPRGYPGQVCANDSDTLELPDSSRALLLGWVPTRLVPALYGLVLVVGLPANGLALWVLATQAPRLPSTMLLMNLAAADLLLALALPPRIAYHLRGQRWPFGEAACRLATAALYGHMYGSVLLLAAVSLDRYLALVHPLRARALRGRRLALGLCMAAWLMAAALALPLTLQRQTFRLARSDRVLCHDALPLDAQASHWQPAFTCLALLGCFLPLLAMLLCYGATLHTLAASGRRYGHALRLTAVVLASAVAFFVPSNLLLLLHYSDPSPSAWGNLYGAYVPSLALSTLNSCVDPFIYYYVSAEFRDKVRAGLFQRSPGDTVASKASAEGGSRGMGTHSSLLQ
The assay is described as follows: Inhibition of PAR4-mediated GYPGKF-induced ATP release in human platelet assessed per 3*10^8 platelets at 0.2 uM.

Assay [7] concerns the target T1, Proteinase-activated receptor 4 (Homo sapiens). The assay is described as follows: Inhibition of PAR4-mediated GYPGKF-induced P-selectin expression in human platelet at 0.05 uM.
Assay [8] shares this target. The assay can be described thus: Inhibition of PAR4-mediated GYPGKF-induced P-selectin expression in human platelet at 0.1 uM.
For assay [9], the system named is Platelet. The assay can be described thus: Inhibition of arachidonic acid-stimulated thromboxane B2 formation in human platelet assessed per 3*10^8 platelets at 5 uM. Format: functional.
Assay [10] addresses T1, Proteinase-activated receptor 4 (Homo sapiens). The assay can be described thus: Inhibition of PAR4-mediated GYPGKF-induced ATP release in human platelet assessed per 3*10^8 platelets at 0.1 uM.

The IC50 is the point on the concentration scale where inhibition reaches its midpoint. Low values mean greater potency, high ones weaker potency. For orientation: inhibition means the share of the control response that was lost under treatment.

For `CCOC(=O)c1ccc(-c2nn(CC)c3ccccc23)cc1`, the IC50 in the assay on Platelet [1] was over 10 µM; in the assay on Platelet [2], over 10 µM; in the assay on Platelet [3], over 10 µM; in the assay with Platelet [4], 360 nM; in the assay on Platelet [5] it was over 10 µM.
For `CCOC(=O)c1ccc(-c2nn(Cc3ccccc3Cl)c3ccccc23)cc1`, the IC50 with Platelet [1] is over 10 µM; in the assay on Platelet [2], over 10 µM; in the assay on Platelet [3], over 10 µM; in the assay on Platelet [4], 230 nM; in the assay with Platelet [5], over 10 µM.
`CCOC(=O)c1ccc(-c2nn(Cc3ccc(OC)cc3)c3ccccc23)cc1`: the IC50 is over 10 µM with Platelet [1]; over 10 µM with Platelet [2]; over 10 µM in the assay on Platelet [3]; 620 nM in the assay on Platelet [4]; over 10 µM with Platelet [5].
On to `CCNC(=O)c1ccc(-c2nn(Cc3ccccc3)c3ccccc23)cc1`, for which the IC50 in the assay with Platelet [1] is over 10 µM; in the assay with Platelet [2], over 10 µM; in the assay on Platelet [3], over 10 µM; with Platelet [4] it was 5640 nM; with Platelet [5], over 10 µM.
On to `CCOC(=O)c1ccc(-c2nn(Cc3cccnc3)c3ccccc23)cc1`, for which the IC50 in the assay with Platelet [1] is over 10 µM; with Platelet [2], over 10 µM; with Platelet [3], over 10 µM; in the assay with Platelet [4], 5550 nM; with Platelet [5], over 10 µM.
Turning to `CCOC(=O)c1ccc(-c2nn(Cc3cccc(OC)c3)c3ccccc23)cc1`, the IC50 is over 10 µM with Platelet [1]; over 10 µM in the assay on Platelet [2]; over 10 µM in the assay with Platelet [3]; 260 nM in the assay on Platelet [4]; over 10 µM with Platelet [5].
Regarding `CC(C)NC(=O)c1ccc(-c2nn(Cc3ccccc3)c3ccccc23)cc1`, the IC50 in the assay on Platelet [1] is over 10 µM; in the assay with Platelet [2], over 10 µM; in the assay with Platelet [3], over 10 µM; in the assay on Platelet [4], over 10000 nM; with Platelet [5], over 10 µM.
`CCOC(=O)c1ccc(-c2nn(Cc3ccccc3OC)c3ccccc23)cc1`: the IC50 with Platelet [1] was over 10 µM; with Platelet [2] it was over 10 µM; with Platelet [3] it was over 10 µM; in the assay with Platelet [4] it was 470 nM; in the assay on Platelet [5], over 10 µM.
With `CCCNC(=O)c1ccc(-c2nn(Cc3ccccc3)c3ccccc23)cc1`, the IC50 in the assay on Platelet [1] was over 10 µM; in the assay with Platelet [2], over 10 µM; with Platelet [3], 9.56 µM; with Platelet [4], over 10000 nM; with Platelet [5] it was over 10 µM.
Consider `OCc1ccc(-c2nn(Cc3ccccc3)c3ccccc23)cc1`, for which the IC50 is over 10 µM in the assay on Platelet [1]; over 10 µM in the assay with Platelet [2]; over 10 µM in the assay on Platelet [3]; over 10000 nM with Platelet [4]; over 10 µM in the assay with Platelet [5].
Consider `CCOC(=O)c1ccc(-c2nn(C(C)C)c3ccccc23)cc1`, for which the IC50 in the assay with Platelet [1] is over 10 µM; in the assay on Platelet [2], over 10 µM; with Platelet [3], over 10 µM; with Platelet [4] it was 650 nM; with Platelet [5], over 10 µM.
For the molecule `CCOC(=O)c1ccc(-c2nn(Cc3ccncc3)c3ccccc23)cc1`, the IC50 was over 10 µM in the assay on Platelet [1]; over 10 µM in the assay on Platelet [2]; over 10 µM with Platelet [3]; 5630 nM in the assay on Platelet [4]; over 10 µM in the assay on Platelet [5].
In the case of `CCOC(=O)c1ccc(-c2nn(C)c3ccccc23)cc1`, the IC50 in the assay on Platelet [1] is over 10 µM; in the assay on Platelet [2], over 10 µM; in the assay with Platelet [3], over 10 µM; in the assay with Platelet [4], 270 nM; in the assay on Platelet [5], over 10 µM.
In the case of `COC(=O)c1ccc(-c2nn(Cc3ccccc3)c3ccccc23)cc1`, the IC50 in the assay on Platelet [1] was over 10 µM; in the assay on Platelet [2] it was over 10 µM; with Platelet [3] it was over 10 µM; in the assay on Platelet [4], 560 nM; in the assay with Platelet [5], over 10 µM.
Regarding `CCOC(=O)c1ccc(-c2nn(Cc3cccc(Cl)c3)c3ccccc23)cc1`, the Activity was found to be 8.9 ng in [6], 1368.4 ng with Platelet [9] and 58.9 ng in assay [10]. The inhibition is 39.3% in [7] and 5.2% in assay [8]. For the same molecule, the IC50 with Platelet [1] is over 10 µM; in the assay with Platelet [2] it was over 10 µM; with Platelet [3], over 10 µM; with Platelet [4] it was 80 nM; with Platelet [5] it was over 10 µM.
For the molecule `CCOC(=O)c1ccc(-c2nn(Cc3ccc(Cl)cc3)c3ccccc23)cc1`, the IC50 is over 10 µM in the assay on Platelet [1]; over 10 µM with Platelet [2]; over 10 µM in the assay on Platelet [3]; 120 nM in the assay on Platelet [4]; over 10 µM in the assay with Platelet [5].
As for `CCCOC(=O)c1ccc(-c2nn(Cc3ccccc3)c3ccccc23)cc1`, the IC50 with Platelet [1] was over 10 µM; in the assay with Platelet [2] it was over 10 µM; with Platelet [3], over 10 µM; in the assay with Platelet [4], over 10000 nM; in the assay with Platelet [5], over 10 µM.
On to `CCOC(=O)c1ccc(-c2nn(Cc3ccc(F)cc3)c3ccccc23)cc1`, for which the IC50 with Platelet [1] was over 10 µM; in the assay on Platelet [2], over 10 µM; in the assay with Platelet [3] it was over 10 µM; with Platelet [4] it was 190 nM; with Platelet [5] it was over 10 µM.
With `CCOC(=O)c1ccc(-c2nn(Cc3ccco3)c3ccccc23)cc1`, the concentration for half-maximal inhibition (IC50) with Platelet [1] was over 10 µM; with Platelet [2] it was over 10 µM; in the assay on Platelet [3] it was over 10 µM; in the assay on Platelet [4], 340 nM; in the assay with Platelet [5], over 10 µM.
Turning to `O=C(O)c1ccc(-c2nn(Cc3ccccc3)c3ccccc23)cc1`, the IC50 is over 10 µM in the assay with Platelet [1]; over 10 µM in the assay with Platelet [2]; over 10 µM in the assay with Platelet [3]; over 10000 nM in the assay with Platelet [4]; over 10 µM in the assay on Platelet [5].
Take `CNC(=O)c1ccc(-c2nn(Cc3ccccc3)c3ccccc23)cc1`: the IC50 with Platelet [1] is over 10 µM; in the assay with Platelet [2] it was over 10 µM; in the assay on Platelet [3], over 10 µM; in the assay on Platelet [4], over 10000 nM; in the assay with Platelet [5], over 10 µM.
Regarding `CCCCn1nc(-c2ccc(C(=O)OCC)cc2)c2ccccc21`, the IC50 is over 10 µM in the assay with Platelet [1]; over 10 µM with Platelet [2]; over 10 µM with Platelet [3]; 670 nM in the assay on Platelet [4]; over 10 µM in the assay with Platelet [5].
`CCOC(=O)c1ccc(-c2c3ccccc3nn2Cc2ccccc2)cc1`: the IC50 with Platelet [1] was over 10 µM; in the assay on Platelet [2] it was over 10 µM; in the assay with Platelet [3], over 10 µM; with Platelet [4], over 10000 nM; in the assay with Platelet [5], over 10 µM.
As for `CO/N=C\c1ccc(-c2nn(Cc3ccccc3)c3ccccc23)cc1`, the IC50 is over 10 µM with Platelet [1]; over 10 µM with Platelet [2]; over 10 µM with Platelet [3]; over 10000 nM in the assay with Platelet [4]; over 10 µM with Platelet [5].
Take `CCOC(=O)c1ccc(-c2nn(Cc3ccccc3F)c3ccccc23)cc1`: the IC50 with Platelet [1] is over 10 µM; with Platelet [2], over 10 µM; in the assay with Platelet [3] it was over 10 µM; in the assay with Platelet [4] it was 110 nM; with Platelet [5], over 10 µM.
Turning to `CCOC(=O)/C=C/c1ccc(-c2nn(Cc3ccccc3)c3ccccc23)cc1`, the IC50 was over 10 µM in the assay on Platelet [1]; over 10 µM with Platelet [2]; over 10 µM in the assay with Platelet [3]; over 10000 nM in the assay on Platelet [4]; over 10 µM with Platelet [5].
In the case of `CCOC(=O)c1ccc(-c2nn(Cc3ccoc3)c3ccccc23)cc1`, the IC50 in the assay with Platelet [1] was over 10 µM; with Platelet [2], over 10 µM; in the assay with Platelet [3], over 10 µM; in the assay on Platelet [4] it was 580 nM; with Platelet [5] it was over 10 µM.
Regarding `CCOC(=O)c1cccc(-c2nn(Cc3ccccc3)c3ccccc23)c1`, the IC50 in the assay with Platelet [1] is over 10 µM; in the assay with Platelet [2], over 10 µM; in the assay with Platelet [3] it was over 10 µM; in the assay on Platelet [4], over 10000 nM; in the assay with Platelet [5], over 10 µM.
`CC(C)OC(=O)c1ccc(-c2nn(Cc3ccccc3)c3ccccc23)cc1`: the IC50 is over 10 µM with Platelet [1]; over 10 µM in the assay on Platelet [2]; over 10 µM with Platelet [3]; over 10000 nM in the assay on Platelet [4]; over 10 µM in the assay on Platelet [5].
On to `CCCn1nc(-c2ccc(C(=O)OCC)cc2)c2ccccc21`, for which the IC50 is over 10 µM in the assay with Platelet [1]; over 10 µM in the assay on Platelet [2]; over 10 µM in the assay with Platelet [3]; 490 nM in the assay on Platelet [4]; over 10 µM in the assay with Platelet [5].
Consider `NC(=O)c1ccc(-c2nn(Cc3ccccc3)c3ccccc23)cc1`, for which the IC50 is over 10 µM in the assay on Platelet [1]; over 10 µM with Platelet [2]; over 10 µM in the assay on Platelet [3]; over 10000 nM in the assay with Platelet [4]; over 10 µM with Platelet [5].
Take `CCOC(=O)c1ccc(-c2nn(Cc3ccccc3)c3ccccc23)cc1`: the results for the Activity (in assay [6]; in the assay on Platelet [9]; in assay [10]) were 12.7 ng, 1408.3 ng and 74.4 ng, respectively. Besides, the inhibition in [7] stood at 67.2%; in assay [8], 7.7%. Also, the IC50 was over 10 µM with Platelet [1]; over 10 µM in the assay with Platelet [2]; over 10 µM in the assay with Platelet [3]; 130 nM in the assay on Platelet [4]; over 10 µM with Platelet [5].
`CCOC(=O)c1ccc(-c2nn(Cc3cccc(F)c3)c3ccccc23)cc1`: the IC50 in the assay on Platelet [1] is over 10 µM; in the assay on Platelet [2], over 10 µM; with Platelet [3], over 10 µM; in the assay with Platelet [4] it was 270 nM; in the assay on Platelet [5], over 10 µM.
